These results are taken from patent US11213494B2 (priority 2016, dated 2022).

Data set [1] deals with AMPA-receptors. The data set can be described thus: Whole-cell patch-clamp recordings of nTS second-order neurons in brainstem slices. Format: cell-based, mice. The settings on record: 10 μM in the superfusate. The method, then: Horizontal brainstem slices were prepared from 3- and 5- to 7-week-old Mecp2 Null and Wt male mice. Animals were deeply anesthetized by inhalation of isoflurane and then decapitated. Brains were removed from the skull and placed in low Ca2+, ice-cold artificial CSF (ACSF) containing the following (in mM): 125 NaCl, 3 KCl, 1.2 NaH2PO4, 1 CaCl2, 1.2 MgSO4, 2 MgCl2, 25 NaHCO3, 10 D-glucose, and 0.4 L-ascorbic acid, equilibrated to pH 7.4 with 95% O2/5% CO2, for 2-5 min. […]
Slices were placed into the recording chamber, held in place with nylon-wired grid and superfused with recording ACSF at 30-32° C. at a flow rate of 4-5 ml/min. […] Evoked, spontaneous and miniature EPSCs (eEPSCs, sPSCs, mEPSCs) were recorded from cells meeting this criterion in the whole-cell voltage-clamp configuration at a holding potential of −60 mV. […] To compare intrinsic neuronal excitability between genotypes, action-potential properties and firing frequency in response to current injection (50 pA increments) were recorded in nComm neurons as well. […]
Spontaneous and evoked postsynaptic currents were analyzed with Clampfit and Microsoft Excel. In the analysis of eEPSCs, 20 sweeps were averaged with Clampfit and the resulting eEPSC amplitudes were measured and compared between genotypes at different stimulation intensities. […]
(In general: Patch clamp records ionic current or voltage across a cell membrane.)

Data set [2] can be described thus: in vivo. The settings on record: Mecp2^tm1.1Jae heterozygous (Het), mouse, ip, 50 mg/kg, brain tissue concentration (corrected for blood contamination). Further details: species or system mice. The method, then: The brain concentration of LM22A-4 (custom synthesized by Ricerca Biosciences, LLC) was evaluated in Het mice 1 h after a 50 mg/kg intraperitoneal dose using reverse-phase liquid chromatography with triple-quadrupole tandem mass spectrometric (LC-MS/MS) detection. […] Brainstem and forebrain samples were homogenized with a Virsonic 100 ultrasonic homogenizer and prepared for analysis using acetonitrile precipitation by combining one volume of sample with three volumes of acetonitrile. Samples were centrifuged and the resulting supernatant was sampled for analysis using a CTC Leap PAL autosampler (Leap Technologies) and two PerkinElmer series 200 micro pumps. Chromatography was performed at ambient temperature using a 50×2.0 mm inner diameter, 4 μm Synergi Polar-RP analytical column (Phenomenex). The aqueous mobile phase (A) was 4 mM ammonium formate, pH 3.5 and the organic mobile phase (B) was 10:90 (v/v) […] ammonium formate, pH 3.5/acetonitrile. The analyte was eluted with a gradient which changed linearly from 0 to 100% B in 3 min at a flow rate of 300 μl/min. The total run time was 4.5 min and the injection volume was 10 μl. The analyte was detected on a Sciex API 3000 triple-quadrupole mass spectrometer equipped with a TurbolonSpray interface in the positive electrospray ionization mode (Applied Biosystems/MDS). […]

Data set [3] concerns Mecp2 Het mice. Format: in vivo. The following applies: 50 mg/kg i.p. twice daily for 4 weeks. The method, then:
(§1) Respiratory patterns were analyzed at 8, 10, and 12 weeks after birth in unrestrained mice using whole-body plethysmography as described previously. Measurements were taken from quiet breathing periods of at least 5 min total duration, and apneas were defined as pauses in breathing greater than two times the average breath duration calculated for each animal. LM22A-4 treatment. Wt and Het littermates were divided into 4 groups: Wt vehicle-treated (100 μl of 0.9% NaCl, i.p., b.i.d.), Wt drug treated (50 mg/kg LM22A-4 in 0.9% NaCl, i.p., b.i.d.), Het vehicle-treated (100 μl of 0.9% NaCl, i.p., b.i.d.), and Het drug-treated (50 mg/kg LM22A-4 in 0.9% NaCl, i.p., b.i.d.). Each mouse was treated from 8 to 13 weeks of age. Whole-body plethysmography was performed during week 12 and animals were subsequently killed and tissues harvested for TrkB Western blots and BDNF ELISA during week 13.
Comparison of respiratory parameters between Wt and Het animals in the initial phenotyping experiments were performed using unpaired Student's t test. Comparisons among Wt vehicle-treated, Wt drug-treated, Het vehicle-treated, and Het drug-treated groups in the LM22A-4 trials, including plethysmography and Western blots were performed using one-way ANOVA with post hoc Least Significant Difference test (LSD) for intergroup comparisons. Results were considered significant if the p-value was <0.05. Data are presented as the mean±SEM.

Data set [4] concerns TrkB. Put plainly: TrkB, AKT and ERK phosphorylation assays (Western blot) in pons and medulla. Format: in vivo, mice. The settings on record: 50 mg/kg i.p. b.i.d. for 5 weeks. As to the method:
The ratios of (1) phospho-TrkB^Y817/TrkB (full-length), phospho-ERK/ERK and phospho-AKT/AKT, (2) phospho-TrkB^Y817/actin, phospho-ERK/actin and phospho-AKT/actin, (3) TrkB (full-length)/actin, ERK/actin and AKT/actin and (4) TrkB (truncated)/actin were measured by Western blot using the ECL Chemiluminescence System (GE Healthcare). Site-specific rabbit monoclonal antiphospho-TrkB^Y817 antibody was obtained from Epitomics and rabbit polyclonal TrkB antibody was obtained from Millipore. Rabbit polyclonal ERK and AKT, mouse monoclonal phospho-ERK and phospho-AKT antibodies were obtained from Cell Signaling Technology. Tissues were homogenized in a lysis buffer (containing, in mM: 20 Tris, pH 8.0, 137 NaCl, 1% Igepal CA-630, 10% glycerol, 1 PMSF, 10 μg/ml aprotinin, 1 μg/ml leupeptin, 500 μM orthovanadate). Lysates were centrifuged at 14,000×g for 10 min, then the supernatant was collected and protein concentration was determined using the BCA Protein Assay Reagent (Pierce).
as §1

Data set [5] in a line: Body weight and tolerability during LM22A-4 treatment. Format: in vivo, mice. The method, then:
as §1

Data set [6] concerns TrkB. Put plainly: Synaptic hyperexcitability in brainstem respiratory and autonomic circuits and apneic breathing in RTT mice. Format: in vivo. The following applies: for synaptic hyperexcitability in brainstem respiratory and autonomic circuits: acute.

Take `N#Cc1cc2c(cc1[N+](=O)[O-])=NC(=O)C(=O)N=2` [6-cyano-7-nitroquinoxaline-2,3-dione]: the “effect on sPSCs” value in data set [1] is “completely abolished”. Also, the “reduction of eEPSC amplitudes” value in data set [1] (n=10) is given as 92.2±1.4%.
Consider `O=C(NCCO)c1cc(C(=O)NCCO)cc(C(=O)NCCO)c1` [LM22A-4, N,N′,N″Tris(2-hydroxyethyl)-1,3,5-benzenetricarboxamide], for which the concentration at 1 h in data set [2] (brainstem) was found to be 2.9 nM. The concentration at 1 h in data set [2] (forebrain) was found to be 4.1 nM. Besides, the “percentage of apneic animals” value in data set [3] is listed as “unaffected”. Besides, in data set [3] (12-week-old Het mice), the “Te (expiratory time) compared with Wt” value is “not significantly different”, the “Ttot (total breath duration) compared with Wt” value is given as “not significantly different” and the “breathing frequency compared with Wt” value is “not significantly different”. For the same molecule, in data set [3] (Wt mice), the “respiratory function, drug- vs vehicle-treated Wt mice” value was “no significant differences”. Besides, the “deficits in TrkB phosphorylation (p-TrkBY817/TrkB, p-TrkBY817/actin)” value in data set [4] (pons and medulla, 13-week-old Het mice) is recorded as “completely reversed”. Also, the “decreases in p-AKT/AKT and p-AKT/actin” value in data set [4] (pons, Het mice) was “reversed”. Moreover, the “effect of drug treatment on level of p-ERK/ERK” value in data set [4] (pons, Wt and Het mice) is given as “no significant effect”. The “levels of p-TrkB/TrkB and p-TrkB/actin vs wild-type controls” value in data set [4] (pons, drug-treated Het mice) is reported as “significantly higher”. The “effect on body weight” value in data set [5] (Wt or Het mice, 50 mg/kg i.p. b.i.d. throughout the treatment period) is “no effect”. The “tolerability of daily treatment” value in data set [5] (heterozygous female Mecp2 mutant mice) is “well tolerated”. For the same molecule, in data set [6], the “apneic breathing in vivo” value is listed as “eliminate”; the “synaptic hyperexcitability in brainstem respiratory and autonomic circuits” value is given as “acutely reverse”.

B1: BDNF: exogenous brain-derived neurotrophic factor, secreted protein, ligand of TrkB (protein, UniProt P23560 19-247, looked up)
Neurotrophic factor BDNF …: APMKEANIRGQGGLAYPGVRTHGTLESVNGPKAGSRGLTSLADTFEHVIEELLDEDQKVRPNEENNKDADLYTSRVMLSSQVPLEPPLLFLLEEYKNYLDAANMSMRVRRHSDPARRGELSVCDSISEWVTAADKKTAVDMSGGTVTVLEKVPVSKGQLKQYFYETKCNPMGYTKEGCRGIDKRHWNSQCRTTQSYVRALTMDSKKRIGWRFIRIDTSCVCTLTIKRGR
For the molecule B1, in data set [6], the “apneic breathing in vivo” value is listed as “eliminate”; the “synaptic hyperexcitability in brainstem respiratory and autonomic circuits” value is on record as “acutely reverse”.
